According to patent US9409966B2, “Glucagon-like peptide-1 derivatives and their pharmaceutical use” (priority 2007, dated 2016):
*1 amine or outer side, *2 acyl side, *3 side chain or, on linkers, in order; H or OH if unused. Where a SMILES comes first, the peptide text is derived from it. Side-chain parts run from the residue outwards. [ ]: non-standard residue; d: D form. The star is where a group is joined. C20 diacid = O=C(O)CCCCCCCCCCCCCCCCCCC(=O)*; βAsp = O=C(O)[C@H](CC(=O)[*:2])N[*:1]; AEEA = NCCOCCOCC(=O)O; Aib = CC(C)(N)C(=O)O; Inp = O=C(O)C1CCNCC1

How the values were obtained:
[1] = biological target: T1, human GLP-1 receptor (Homo sapiens, UniProt P43220); experiment: Stimulation of cAMP formation in a cell line expressing the cloned human GLP-1 receptor; format: biochemical; conditions: cAMP production, purified plasma membranes from BHK467-12A (tk-ts13), AlphaScreen cAMP Assay Kit; read-out: Potency [EC50/nM]
T1 construct: expressed in transfected cells; host or cells: BHK467-12A (tk-ts13) baby hamster kidney cells; purified plasma membranes
T1 sequence (P43220 24-463): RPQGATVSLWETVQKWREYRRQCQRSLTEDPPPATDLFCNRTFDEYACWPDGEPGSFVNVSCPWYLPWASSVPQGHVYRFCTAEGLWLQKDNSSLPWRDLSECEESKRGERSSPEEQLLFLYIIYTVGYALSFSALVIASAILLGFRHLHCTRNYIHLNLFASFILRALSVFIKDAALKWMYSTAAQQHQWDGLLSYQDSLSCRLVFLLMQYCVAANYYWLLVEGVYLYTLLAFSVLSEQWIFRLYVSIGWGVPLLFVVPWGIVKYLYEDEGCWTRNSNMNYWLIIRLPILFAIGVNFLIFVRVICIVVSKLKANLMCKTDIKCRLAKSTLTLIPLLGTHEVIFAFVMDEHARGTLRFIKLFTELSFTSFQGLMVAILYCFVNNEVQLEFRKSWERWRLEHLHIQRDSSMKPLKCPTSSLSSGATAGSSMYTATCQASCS
Procedure: A stable transfected cell line has been prepared at NN A/S, Denmark, and a high expressing clone was selected for screening. The cells were grown at 5% CO2 in DMEM, 5% FCS, 1% Pen/Strep (Penicillin/Streptomycin) and 0.5 mg/ml of the selection marker G418.
Cells at approximate 80% confluence were washed 2× with PBS (Phosphate Buffered Saline) and harvested with Versene (aqueous solution of the tetrasodium salt of ethylenediaminetetraacetic acid), centrifuged 5 min at 1000 rpm and the supernatant removed. The additional steps were all made on ice. […] Suspension in Buffer 2, homogenization and centrifugation was repeated once and the membranes were resuspended in Buffer 2 and ready for further analysis or stored at −80° C.
The functional receptor assay was carried out by measuring the peptide induced cAMP production by The AlphaScreen Technology. […] The capture of cAMP is achieved by using a specific antibody conjugated to acceptor beads. Formed cAMP was counted and measured at a AlphaFusion Microplate Analyzer. The EC50 values were calculated using the Graph-Pad Prisme software (version 5).

[2] = biological target: human serum albumin (HSA) (Homo sapiens, UniProt P02768); experiment: Albumin binding affinity, competition scintillation proximity assay (SPA)
human serum albumin (HSA), sequence (P02768 25-609): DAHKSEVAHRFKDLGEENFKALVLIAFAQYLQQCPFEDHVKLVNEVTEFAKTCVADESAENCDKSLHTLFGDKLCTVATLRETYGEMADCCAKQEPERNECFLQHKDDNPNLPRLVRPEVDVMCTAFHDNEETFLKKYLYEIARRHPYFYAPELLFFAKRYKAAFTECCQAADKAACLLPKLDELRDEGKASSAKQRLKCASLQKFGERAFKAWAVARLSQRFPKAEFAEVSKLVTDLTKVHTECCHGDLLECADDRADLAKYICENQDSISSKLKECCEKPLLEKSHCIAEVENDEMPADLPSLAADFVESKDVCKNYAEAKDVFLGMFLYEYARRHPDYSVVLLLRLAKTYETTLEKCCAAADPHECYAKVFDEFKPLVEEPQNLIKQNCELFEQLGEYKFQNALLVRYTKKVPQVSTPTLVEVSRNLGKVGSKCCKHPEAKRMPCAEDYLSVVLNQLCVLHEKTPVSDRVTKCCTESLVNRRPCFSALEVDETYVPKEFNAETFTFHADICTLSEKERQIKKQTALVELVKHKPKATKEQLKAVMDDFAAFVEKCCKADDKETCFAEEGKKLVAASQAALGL
Procedure: Streptavidin-SPA beads (GE Healthcare RPNQ0009) were incubated with biotinylated HSA for 5 hours. The beads were washed with buffer to remove unbound HSA. […] After 20 hours of gentle rocking at room temperature the plates were centrifuged and counted on a TopCounter.

Row | EC50 [1] | EC50 [2] | Structure (SMILES)
1 | 0.66 nM | 1500 to 2000 nM | CC[C@H](C)[C@H](NC(=O)[C@H](Cc1ccccc1)NC(=O)[C@H](CCC(=O)O)NC(=O)[C@H](CCCNC(=N)N)NC(=O)[C@H](C)NC(=O)[C@H](C)NC(=O)[C@H](CCC(N)=O)NC(=O)[C@H](CCC(=O)O)NC(=O)[C@H](CCC(=O)O)NC(=O)[C@H](CC(C)C)NC(=O)[C@H](Cc1ccc(O)cc1)NC(=O)[C@H](CO)NC(=O)[C@H](CO)NC(=O)[C@@H](NC(=O)[C@H](CC(=O)O)NC(=O)[C@H](CO)NC(=O)[C@@H](NC(=O)[C@H](Cc1ccccc1)NC(=O)[C@@H](NC(=O)CNC(=O)[C@H](CCC(=O)O)NC(=O)[C@H](C)NC(=O)CCc1c[nH]cn1)[C@@H](C)O)[C@@H](C)O)C(C)C)C(=O)N[C@@H](C)C(=O)N[C@@H](Cc1c[nH]c2ccccc12)C(=O)N[C@@H](CC(C)C)C(=O)N[C@H](C(=O)N[C@@H](CCCNC(=N)N)C(=O)NCC(=O)N[C@@H](CCCNC(=N)N)C(=O)N[C@@H](CCCCNC(=O)COCCOCCNC(=O)COCCOCCNC(=O)CC[C@H](NC(=O)[C@H]1CC[C@H](CNC(=O)CCCCCCCCCCCCCCCCCCC(=O)O)CC1)C(=O)O)C(N)=O)C(C)C [Example 8, N-epsilon37-[2-(2-{2-[2-(2-{2-[(S)-4-Carboxy-4-({trans-4-[(19-carboxy-nonadecanoylamino)methyl]cyclohexanecarbonyl}amino)butyrylamino]ethoxy}ethoxy)acetylamino]ethoxy}ethoxy)acetyl][DesaminoHis7,Glu22,Arg26,Arg34,Lys37]GLP-1-(7-37)amide]
2 | 0.1 nM | 400 to 800 nM | CC[C@H](C)[C@H](NC(=O)[C@H](Cc1ccccc1)NC(=O)[C@H](CCC(=O)O)NC(=O)[C@H](CCCNC(=N)N)NC(=O)[C@H](C)NC(=O)[C@H](C)NC(=O)[C@H](CCC(N)=O)NC(=O)[C@H](CCC(=O)O)NC(=O)[C@H](CCC(=O)O)NC(=O)[C@H](CC(C)C)NC(=O)[C@H](Cc1ccc(O)cc1)NC(=O)[C@H](CO)NC(=O)[C@H](CO)NC(=O)[C@@H](NC(=O)[C@H](CC(=O)O)NC(=O)[C@H](CO)NC(=O)[C@@H](NC(=O)[C@H](Cc1ccccc1)NC(=O)[C@@H](NC(=O)CNC(=O)[C@H](CCC(=O)O)NC(=O)[C@H](C)NC(=O)CCc1c[nH]cn1)[C@@H](C)O)[C@@H](C)O)C(C)C)C(=O)N[C@@H](C)C(=O)N[C@@H](Cc1c[nH]c2ccccc12)C(=O)N[C@@H](CC(C)C)C(=O)N[C@H](C(=O)N[C@@H](CCCNC(=N)N)C(=O)NCC(=O)N[C@@H](CCCNC(=N)N)C(=O)N[C@@H](CCCCNC(=O)COCCOCCNC(=O)COCCOCCNC(=O)CC[C@H](NC(=O)CCCCCCCCCCCCCCCCC(=O)O)C(=O)O)C(=O)O)C(C)C [Example 29, N-epsilon37-[2-(2-{2-[2-(2-{2-[(S)-4-Carboxy-4-(17-carboxy-heptadecanoylamino)-butyrylamino]-ethoxy}-ethoxy)-acetylamino]-ethoxy}-ethoxy)-acetyl] [desaminoHis7,Glu22,Arg26,Arg34,Lys37] GLP-1-(7-37)]
3 | 1.97 nM | 100 to 150 nM | CC[C@H](C)[C@H](NC(=O)[C@H](Cc1ccccc1)NC(=O)[C@H](CCC(=O)O)NC(=O)[C@H](CCCNC(=N)N)NC(=O)[C@H](C)NC(=O)[C@H](C)NC(=O)[C@H](CCC(N)=O)NC(=O)[C@H](CCC(=O)O)NC(=O)[C@H](CCC(=O)O)NC(=O)[C@H](CC(C)C)NC(=O)[C@H](Cc1ccc(O)cc1)NC(=O)[C@H](CO)NC(=O)[C@H](CO)NC(=O)[C@@H](NC(=O)[C@H](CC(=O)O)NC(=O)[C@H](CO)NC(=O)[C@@H](NC(=O)[C@H](Cc1ccccc1)NC(=O)[C@@H](NC(=O)CNC(=O)[C@H](CCC(=O)O)NC(=O)[C@H](C)NC(=O)CCc1c[nH]cn1)[C@@H](C)O)[C@@H](C)O)C(C)C)C(=O)N[C@@H](C)C(=O)N[C@@H](Cc1c[nH]c2ccccc12)C(=O)N[C@@H](CC(C)C)C(=O)N[C@H](C(=O)N[C@@H](CCCNC(=N)N)C(=O)NCC(=O)N[C@@H](CCCNC(=N)N)C(=O)N[C@@H](CCCCNC(=O)COCCOCCNC(=O)CC[C@H](NC(=O)CC[C@H](NC(=O)CCCCCCCCCCCNC(=O)CCCS(=O)(=O)NC(=O)CCCCCCCCCCCCCCCc1nnn[nH]1)C(=O)O)C(=O)O)C(N)=O)C(C)C [Example 13, N-epsilon37-[2-(2-{2-[(S)-4-Carboxy-4-((S)-4-carboxy-4-{12-[4-(16-(1H-tetrazol-5-yl)hexadecanoylsulfamoyl)butyrylamino]dodecanoylamino}butyrylamino)butyrylamino]ethoxy}ethoxy)acetyl][DesaminoHis7,Glu22,Arg26,Arg34,Lys37]GLP-1-(7-37)amide]
4 | 0.2 nM | 100 to 150 nM | CC[C@H](C)[C@H](NC(=O)[C@H](Cc1ccccc1)NC(=O)[C@H](CCC(=O)O)NC(=O)[C@H](CCCNC(=N)N)NC(=O)[C@H](C)NC(=O)[C@H](C)NC(=O)[C@H](CCC(N)=O)NC(=O)[C@H](CCC(=O)O)NC(=O)[C@H](CCC(=O)O)NC(=O)[C@H](CC(C)C)NC(=O)[C@H](Cc1ccc(O)cc1)NC(=O)[C@H](CO)NC(=O)[C@H](CO)NC(=O)[C@@H](NC(=O)[C@H](CC(=O)O)NC(=O)[C@H](CO)NC(=O)[C@@H](NC(=O)[C@H](Cc1ccccc1)NC(=O)[C@@H](NC(=O)CNC(=O)[C@H](CCC(=O)O)NC(=O)C(C)(C)NC(=O)[C@@H](N)Cc1c[nH]cn1)[C@@H](C)O)[C@@H](C)O)C(C)C)C(=O)N[C@@H](C)C(=O)N[C@@H](CCCCNC(=O)COCCOCCNC(=O)COCCOCCNC(=O)C[C@H](NC(=O)C1CCN(C(=O)CCCCCCCCCCCCCCCCCCC(=O)O)CC1)C(=O)O)C(=O)N[C@@H](CC(C)C)C(=O)N[C@H](C(=O)N[C@@H](CCCCN)C(=O)NCC(=O)N[C@@H](CCCNC(=N)N)C(=O)NCC(=O)O)C(C)C [Example 5, N-epsilon31{2-[2-(2-{2-[2-((S)-3-carboxy-3-{[1-(19-carboxynonadecanoyl)piperidine-4-carbonyl]amino}propionylamino)ethoxy]ethoxy}acetylamino)ethoxy]ethoxy}acetyl [Aib8,Glu22,Arg26,Lys31]GLP-1-(7-37)] (H-H[Aib]EGTFTSDVSSYLEEQAAREFIAK([AEEA-AEEA-βAsp-Inp-C20 diacid])LVKGRG-OH)
5 | 0.2 nM | 200 to 400 nM | CC[C@H](C)[C@H](NC(=O)[C@H](Cc1ccccc1)NC(=O)[C@H](CCC(=O)O)NC(=O)[C@H](CCCNC(=N)N)NC(=O)[C@H](C)NC(=O)[C@H](C)NC(=O)[C@H](CCC(N)=O)NC(=O)[C@H](CCC(=O)O)NC(=O)[C@H](CCC(=O)O)NC(=O)[C@H](CC(C)C)NC(=O)[C@H](Cc1ccc(O)cc1)NC(=O)[C@H](CO)NC(=O)[C@H](CO)NC(=O)[C@@H](NC(=O)[C@H](CC(=O)O)NC(=O)[C@H](CO)NC(=O)[C@@H](NC(=O)[C@H](Cc1ccccc1)NC(=O)[C@@H](NC(=O)CNC(=O)[C@H](CCC(=O)O)NC(=O)C(C)(C)NC(=O)[C@@H](N)Cc1c[nH]cn1)[C@@H](C)O)[C@@H](C)O)C(C)C)C(=O)N[C@@H](C)C(=O)N[C@@H](Cc1c[nH]c2ccccc12)C(=O)N[C@@H](CC(C)C)C(=O)N[C@H](C(=O)N[C@@H](CCCNC(=N)N)C(=O)NCC(=O)N[C@@H](CCCNC(=N)N)C(=O)N[C@@H](CCCCNC(=O)COCCOCCNC(=O)COCCOCCNC(=O)C[C@H](NC(=O)C1CCN(C(=O)CCCCCCCCCCCCCCCCCCC(=O)O)CC1)C(=O)O)C(N)=O)C(C)C [Example 2, N-epsilon37{2-[2-(2-{2-[2-((S)-3-carboxy-3-{[1-(19-carboxynonadecanoyl)piperidine-4-carbonyl]amino}propionylamino)ethoxy]ethoxy}acetylamino)ethoxy]ethoxy}acetyl [Aib8,Glu22,Arg26,Arg34,Lys37]GLP-1-(7-37)amide]
